Measurements: patent US20100152044A1, “Plant growth regulation” (Bayer CropScience GmbH, priority 2004, published 2010)

Experiments:
[1] = tested on: wheat (Triticum aestivum, variety TRISO); assay: Root growth assay, seed treatment, wheat; type: in vivo; settings: Root Growth of 100 is set as the standard, wet root weight 16 (±2) days post treatment
Text: (§1) Plant roots are a highly proliferative tissue that allows an easy accessible, cheap and short term screening method for plant growth regulators. The results obtained can easily be transferred to the overall effects on a plant of plant growth regulators identified by such a system. By using this root assay one is enabled to determine the effect of a seed treatment to root growth and/or germination and/or changes in habitat of germinated plants in order to identify the possible use as a yield enhancer. Two seeds of wheat (Triticum aestivum, variety “TRISO”) or 1 seed of maize (Zea mays, variety “LORENZO”) per hole in a plastic tray which contains an architecture of 8×13 holes were placed on compost soil covered with sand. These seeds were treated with 100 μl/hole, which creates an application volume of approx. 1200 l/ha, of a compound solution at active ingredient rates equivalent to 100, 10 and 1 g a.i./ha of each compound using an robotic application system (Lizzy Spray Robotics). Six replicates in a row of each compound and concentration were done. The outer rim of the above defined plastic tray was untreated to avoid false negative effects and the middle row (No. 7) was used as untreated control. The treated seeds were allowed to dry for approx. 4 hours and subsequently covered with sand and watered. The trays were stored in climate chambers with 14 hours lighting at a temperature of 24° C. (±2) at daytime and 16° C. (±2) at night and relative humidity (rH) of 60% and daily watered. Assessments were done 16 (±2) days post treatment by counting the germinated plants and assessing the phytotoxicity symptoms and percentage. In addition, the roots were washed out and the shoots were cut directly above the seed and the wet roots were placed on dry paper towels for approximately 30 minutes and weighted afterwards. This procedure provides a similar grade of moisture to the roots so that a comparison of the weights is possible.
(§2) The effects observed concerning Root Growth given in column 2 (Root Growth of “100” is set as the standard) are directed to concentrations that are equivalent to 100, 10, 1 g a.i./ha, each.

[2] = tested on: maize (Zea mays, variety LORENZO); assay: Root growth assay, seed treatment, maize; type: in vivo; settings: Root Growth of 100 is set as the standard, wet root weight 16 (±2) days post treatment
Text: as §1, §2

O=C1NC(=O)C(c2c[nH]c3ccccc23)=C1c1c[nH]c2ccccc12 [Compound 1, 3,4-Di-(1H-indol-3-yl)pyrrole-2,5-dione]
Root Growth ([1]; 1 g a.i./ha): 69 | Root Growth ([1]; 10 g a.i./ha): 129 | Root Growth ([1]; 100 g a.i./ha): 133

O=C1NC(=O)C(c2ccccc2)=C1Nc1cccc(Cl)c1 [Compound 1.1, 3-(3-Chlorophenylamino)-4-phenylpyrrole-2,5-dione]
melting point: 187 °C

O=C1NC(=O)C(c2ccccc2)=C1Nc1ccc(Cl)c(Cl)c1 [Compound 1.2, 3-(3,4-dichlorophenylamino)-4-phenylpyrrole-2,5-dione]
Root Growth ([2]; 1 g a.i./ha): 130 | Root Growth ([2]; 10 g a.i./ha): 117 | Root Growth ([2]; 100 g a.i./ha): 141 | melting point: 242 °C

O=C1NC(=O)C(c2ccccc2)=C1Nc1ccc(OC(F)(F)F)cc1 [Compound 1.6, 3-Phenyl-4-(4-trifluoromethoxyphenylamino)pyrrole-2,5-dione]
melting point: 206 °C

O=C1NC(=O)C(c2ccccc2C(F)(F)F)=C1Nc1ccc(O)c(Cl)c1 [Compound 1.8]
Root Growth ([2]; 1 g a.i./ha): 114 | Root Growth ([2]; 10 g a.i./ha): 144 | Root Growth ([2]; 100 g a.i./ha): 123

O=C1NC(=O)C(c2cc(Cl)sc2Cl)=C1Nc1ccc(O)c(Cl)c1 [Compound 1.10]
Root Growth ([1]; 1 g a.i./ha): 101 | Root Growth ([1]; 10 g a.i./ha): 134 | Root Growth ([1]; 100 g a.i./ha): 77

O=C1NC(=O)C(c2ccc(Cl)cc2)=C1Nc1ccc(O)c(C(=O)O)c1 [Compound 1.12]
Root Growth ([2]; 1 g a.i./ha): 122 | Root Growth ([2]; 10 g a.i./ha): 172 | Root Growth ([2]; 100 g a.i./ha): 199

Cc1ccc(NC2=C(c3ccc(Br)cc3)C(=O)NC2=O)cc1Cl [Compound 1.16]
Root Growth ([2]; 1 g a.i./ha): 113 | Root Growth ([2]; 10 g a.i./ha): 112 | Root Growth ([2]; 100 g a.i./ha): 158 | Root Growth ([1]; 1 g a.i./ha): 84 | Root Growth ([1]; 10 g a.i./ha): 171 | Root Growth ([1]; 100 g a.i./ha): 129

O=C1NC(=O)C(c2ccc(Cl)cc2)=C1Nc1ccc(C(=O)O)cc1 [Compound 1.19]
Root Growth ([1]; 1 g a.i./ha): 148 | Root Growth ([1]; 10 g a.i./ha): 183 | Root Growth ([1]; 100 g a.i./ha): 91

O=C1NC(=O)C(c2c(Cl)cccc2Cl)=C1Nc1cccc(Cl)c1 [Compound 1.20]
Root Growth ([2]; 1 g a.i./ha): 142 | Root Growth ([2]; 10 g a.i./ha): 114 | Root Growth ([2]; 100 g a.i./ha): 125

CN(C)CCCn1cc(C2=C(c3c[nH]c4ccccc34)C(=O)NC2=O)c2ccccc21 [Compound 8]
Root Growth ([2]; 1 g a.i./ha): 109 | Root Growth ([2]; 10 g a.i./ha): 150 | Root Growth ([2]; 100 g a.i./ha): 93 | Root Growth ([1]; 1 g a.i./ha): 122 | Root Growth ([1]; 10 g a.i./ha): 150 | Root Growth ([1]; 100 g a.i./ha): 123

Cn1cc(C2=C(c3cn(CCCN)c4ccccc34)C(=O)NC2=O)c2ccccc21 [Compound 11]
Root Growth ([1]; 1 g a.i./ha): 162 | Root Growth ([1]; 10 g a.i./ha): 169 | Root Growth ([1]; 100 g a.i./ha): 135

Cn1cc(C2=C(c3c4n(c5ccccc35)CCC(CN)C4)C(=O)NC2=O)c2ccccc21 (stereo not drawn) [Compound 12]
Root Growth ([1]; 1 g a.i./ha): 126 | Root Growth ([1]; 10 g a.i./ha): 150 | Root Growth ([1]; 100 g a.i./ha): 141
